Measurements from patent publication US6703397B2, “Pyrimidinyl methyl indole derivatives with antibacterial activity” (Basilea Pharmaceutica AG, priority 2000, dated 2004).
pIC50: −log10 of the molar value. ≈ marks a conversion by molar mass, not a printed value. Read-outs that look alike come from different tables or passages of the source.

Tests used:
[1] = test system: Streptococcus pneumoniae ATCC 49619; assay: MIC against Streptococcus pneumoniae ATCC 49619 (trimethoprim- and penicillin-susceptible reference strain); format: cell-based
Experimental: The following Tables 1 and 2 contain inhibitory concentrations determined in the above test for representative members of the class of compound defined by formula I. The following microorganisms were tested: Col. 1: […]

[2] = test system: Streptococcus pneumoniae 1/1; assay: MIC against Streptococcus pneumoniae 1/1 (trimethoprim- and penicillin-resistant clinical isolate, serotype 6); format: cell-based
Experimental: The following Tables 1 and 2 contain inhibitory concentrations determined in the above test for representative members of the class of compound defined by formula I. The following microorganisms were tested: […]
Col. 2: MIC Spn1/1; μg/ml (Streptococcus pneumoniae 1/1, Trimethoprim- and Penicillin-resistant, Serotype 6; clinical isolate, stored at −80° C.). Lit.: H. Locher et al., Can. J. Infect. Dis. 6: Suppl. C, p 469C.

[3] = target: purified DHFR of strain Spn1/1 (Streptococcus pneumoniae serotype 4, UniProt Q54801, E20D/I100L/L135F/P70S/Q81H); assay: biochemical
purified DHFR of strain Spn1/1, sequence (Q54801 whole entry E20D/P70S/Q81H/I100L/L135F): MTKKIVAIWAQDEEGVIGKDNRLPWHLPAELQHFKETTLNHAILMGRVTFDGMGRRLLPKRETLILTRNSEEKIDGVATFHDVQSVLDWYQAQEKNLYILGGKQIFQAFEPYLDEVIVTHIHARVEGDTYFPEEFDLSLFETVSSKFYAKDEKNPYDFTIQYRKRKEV
Description: Col. 3: DHFR Spn1/1; μM)—the IC50-values in μM against the purified DHFR of the above strain Spn1/1; of Streptococcus pneumoniae.

[4] = ATCC49619, Streptococcus pneumoniae ATCC 49619, trimethoprim- and penicillin-susceptible, read-out: Spn 49619 MIC
[5] = Streptococcus pneumoniae 1/1, trimethoprim- and penicillin-resistant, serotype 6, read-out: Spn 1/1 MIC

SMILES | MIC [1, 4] | MIC [2, 5] | pIC50 [3] | MIC ([1]; Streptococcus pneumoniae, ATCC49619, read-out: Spn 49619 MIC) | MIC ([2]; Streptococcus pneumoniae, 1/1, read-out: Spn 1/1 MIC)
CCn1cc(CN2CCOCC2)c2c(OS(=O)(=O)CC3CC3)cc(Cc3cnc(N)nc3N)cc21 [Example 10e, Cyclopropyl-methanesulfonic acid 6-(2,4-diamino-pyrimidin-5-ylmethyl)-1-ethyl-3-morpholin-4-ylmethyl-1H-indol-4-yl ester] | 0.125 µg/mL (≈ 0.25 µM) | 4 µg/mL (≈ 7.99 µM) | 8.32 |  | 
CCn1cc(C=O)c2c(OS(=O)(=O)C(C)C)cc(Cc3cnc(N)nc3N)cc21 [Example 11, Propane-2-sulfonic acid 6-(2,4-diamino-pyrimidin-5-ylmethyl)-1-ethyl-3-formyl-1H-indol-4-yl ester] |  |  | 7.03 | 0.25 µg/mL (≈ 0.599 µM) | > 8 µg/mL
CCn1cc(C)c2c(OS(=O)(=O)C(C)C)cc(Cc3cnc(N)nc3N)cc21 [Example 12a, Propane-2-sulfonic acid 6-(2,4-diamino-pyrimidin-5-ylmethyl)-1-ethyl-3-methyl-1H-indol-4-yl ester] | 0.125 µg/mL (≈ 0.31 µM) | 4 µg/mL (≈ 9.91 µM) | 7.82 |  | 
CCn1cc(C)c2c(OS(=O)(=O)CC3CC3)cc(Cc3cnc(N)nc3N)cc21 [Example 12b, Cyclopropyl-methanesulfonic acid 6-(2,4-diamino-pyrimidin-5-ylmethyl)-1-ethyl-3-methyl-1H-indol-4-yl ester] | ≤ 0.015 µg/mL | 4 µg/mL (≈ 9.63 µM) | 8.43 |  | 
CCn1cc(Br)c2c(OCC3CC3)cc(Cc3cnc(N)nc3N)cc21 [Example 13, 5-(3-Bromo-4-cyclopropylmethoxy-1-ethyl-1H-indol-6-ylmethyl)-pyrimidine-2,4-diamine] | 0.125 µg/mL (≈ 0.3 µM) | 4 µg/mL (≈ 9.61 µM) | 7.38 |  | 
CCOc1cc(Cc2cnc(N)nc2N)cc2c1cc(C)n2CC [Example 15a, 5-(4-Ethoxy-1-ethyl-2-methyl-1H-indol-6-ylmethyl)-pyrimidine-2,4-diamine] | 0.25 µg/mL (≈ 0.768 µM) | 8 µg/mL (≈ 24.6 µM) | 7.25 |  | 
CCn1c(C)cc2c(OCC3CC3)cc(Cc3cnc(N)nc3N)cc21 [Example 15b, 5-(4-Cyclopropylmethoxy-1-ethyl-2-methyl-1H-indol-6-ylmethyl)-pyrimidine-2,4-diamine] | 0.5 µg/mL (≈ 1.42 µM) | 8 µg/mL (≈ 22.8 µM) | 7.70 |  | 
CCOc1cc(Cc2cnc(N)nc2N)cc2c1c(-c1cccc(OC)c1)cn2CC [Example 17a, 5-[4-Ethoxy-1-ethyl-3-(3-methoxy-phenyl)-1H-indol-6-ylmethyl]-pyrimidine-2,4-diamine] | 0.5 µg/mL (≈ 1.2 µM) | 8 µg/mL (≈ 19.2 µM) | 8.20 |  | 
CCn1cc(-c2cccc(OC)c2)c2c(OC)cc(Cc3cnc(N)nc3N)cc21 [Example 17b, 5-[1-Ethyl-4-methoxy-3-(3-methoxy-phenyl)-1H-indol-6-ylmethyl]-pyrimidine-2,4-diamine] | 0.5 µg/mL (≈ 1.24 µM) | 8 µg/mL (≈ 19.8 µM) | 8.37 |  | 
